From US9486417B2, “Transdermal therapeutic system for administering lipophilic and/or sparingly skin-permeable active substances” (LTS Lohmann Therapie-Systeme AG, priority 2005, dated 2016)
Converted amounts (≈) assume the structure as drawn. Where two headings read alike, the source gives them in different places.

Key:
[1] = cited from earlier work
[2] = cited from earlier work; for half-life: oral administration
[3] = format: in vitro ADME
Method: The first preliminary tests carried out in accordance with the present invention with a view to developing a matrix transdermal therapeutic system for administration of vinpocetine led to transdermal therapeutic systems (TTSs) by means of which a skin flux (permeation rate in steady state) of 0.91 μg/cm^2×h could be achieved. In order to adjust the therapeutically required concentration of 2 to 3 ng/ml of vinpocetine in a patient's plasma, a transdermal therapeutic system that is designed for an application period of 24 hours would have to have an area of about 120 cm^2. For reasons of patient acceptance, however, the surface area of a transdermal therapeutic system should be kept as small as possible and, if possible, should not exceed 40 cm^2, preferably 20 cm^2.

[4] = 1% suspension of vinpocetine in ethanol and 1-menthol applied directly to human full-thickness skin in vitro; cited from earlier work
[5] = pH value of 7.4; cited from earlier work

skin flux (permeation rate in steady state) [3]	Compound	water-solubility ([1]; base, 22° C.)	half-life [2]	permeation rate [4]	water-solubility ([1]; room temperature)	time to enter the blood stream after administration ([2]; oral, fasting or with meals)	time until excreted by the body almost completely ([2]; oral)	water solubility ([1]; base, 22° C.)	solubility in ethanol or DMSO ([1]; ethanol or DMSO)	proportion present in cationic form [5]	bioavailability ([2]; gastrointestinal absorption, not metabolised presystemically)	therapeutically required / effective plasma level ([2]; patient's plasma)
–	CCCN1C[C@H](CSC)C[C@@H]2c3cccc4[nH]cc(c34)C[C@H]21 [pergolide, D-6-n-propyl-8 β-methyl-mercaptomethyl-ergoline]	0.021 µg/mL	27 h	–	–	–	–	–	–	–	–	–
0.91 μg/cm^2×h	CCOC(=O)C1=C[C@]2(CC)CCCN3CCc4c(n1c1ccccc41)[C@@H]32 [vinpocetine, ethyl apovincamin-22-oate]	–	one to two	6.45 μg/cm^2×h	0.02 µg/mL	about half an hour	eight	–	–	–	–	–
–	COc1nc(C)nc(Cl)c1NC1=NCCN1 [moxonidine, 4-chloro-N-(4,5-dihydro-1H-imidazol-2-yl)-6-methoxy-2-methyl-5-pyrimidinamine]	–	–	–	–	–	–	1360 µg/mL (≈ 5.63 mM)	up to 100 mM	about 50%	about 90%	around 5.4 ng/ml
